From the NIST ThermoML archive (doi:10.1016/j.jct.2015.11.005)
Numbers after ± are expanded uncertainties.

Settings: Crystal; visual observation

COc1ccc2[nH]c([S+]([O-])Cc3ncc(C)c(OC)c3C)nc2c1 (stereo unspecified) [Omeprazole]
Normal melting temperature: 156.00 ± 2.1 °C
